One series deals with Chlorella sp. ATCC 7516. Put plainly: Algal efficacy testing of dry paint films (modified ASTM 5589, 6-well plates). Type of series: cell-based. The note with it: 3 weeks; for Total conc: total biocide concentration in paint used as minimum inhibitory concentration for SI, pass level ≧75% inhibition. As for the experimental part: Slurries containing 33% antimicrobial active ingredient (chlorotoluron) were post added to a white, acrylic/silicone based outdoor paint free of biocides to give a total active ingredient concentration of 10000 and 1000 ppm respectively. ROCIMA™ 250 (40% IPBC) was post added to a white, acrylic/silicone based outdoor paint free of biocides to give a total active ingredient concentration of 10000 and 1000 ppm respectively. These paints were then diluted with an antimicrobial free acrylic/silicone based paint and mixed to prepare targeted concentrations of antimicrobial compounds for the testing. The total biocides concentrations tested were 125, 250, 500, 1000, 2000 and 5000 ppm. After biocides addition or dilution, the paints were mixed 90 seconds with the horse power shaker (AXEL 75M3372/Agitateur SO-10MI) until uniformity was achieved. Paints containing different antimicrobial compounds at the same levels were mixed together in order to obtain the desired ratio of antimicrobial compounds. After one day, the paints were applied to Schleicher & Schuell filter paper at 280 μm wet film thickness and dried for 3 days at room temperature avoiding direct exposure to sunlight. Square discs (1.6 cm×1.6 cm) were cut out from each panel and were used as the substrate for algal efficacy tests. This sample size allowed for an agar border when the sample disc was placed into the well of the test plate.
Algal efficacy was tested according to modified ASTM 5589 which is a standard accelerated test method for determining resistance of various coatings (including paints) to algal defacement. To accommodate for high-throughput screening, this method was scaled down from petri dishes to 6-well plates. Bold Modified Basal Freshwater Nutrient Solution was used as growth medium. A single coated filter paper coupon was placed with a pair of sterile forceps at the center of the agar plug (on top) with the painted surface facing upwards. Algal inoculum was prepared by mixing equal concentrations (1×10^6 cfu/ml) and equal volumes of exponentially growing algae cultures.
Each well that contains a tested coupon was inoculated with 1750 μl of algal suspensions (1×10^6 cfu/ml) making sure that the whole surface (paint film as well as the agar surrounding it) was evenly covered. The plates were incubated at room temp (21° C.-25° C.) with cyclic exposure to light and dark phases, for a period of three weeks. The total area inhibited was evaluated at the end of each week according to percent area covered in 5% increments.
At the end of the three week incubation period, the samples were scored for percent inhibition regarding color intensity compared to the blank sample.
The Synergy Index calculation was performed as follows.
The SI is calculated based on F. C. Kull et. […]

For series [1] the following is noted: cited from earlier work.

The inhibition is the drop in the measured response relative to a control, in per cent. With `Cc1ccc(NC(=O)N(C)C)cc1Cl` [Chlorotoluron, N′-(3-chloro-4-methylphenyl)-N,N-dimethylurea], in the series with Chlorella sp. ATCC 7516, the Total conc stood at 1000 ppm. Also, the inhibition at 1000 ppm in the series on Chlorella sp. ATCC 7516 (504 h, total conc 1000 ppm in paint) was determined as 100%. Moreover, the solubility in water result in series [1] is given as “relatively low”.

`CCCCNC(=O)OCC#CI` [IPBC, 3-Iodo-2-propynyl butylcarbamate]: the Total conc in the series with Chlorella sp. ATCC 7516 was found to be 2000 ppm. Moreover, the inhibition at 2000 ppm in the series with Chlorella sp. ATCC 7516 (504 h, total conc 2000 ppm in paint) stood at 70%.

(Values after patent US9326517B2, “Synergistic combination of a chlorotoluron compound and IPBC for dry film protection” (Dow Global Technologies LLC, priority 2013, dated 2016).)
